Like-named read-outs stand apart in the source and are kept apart here.
Legend:
[1] = test system: TNFα secretion from LPS stimulated white blood cells from human buffy coat; test: TNFα secretion assay, LPS stimulation; settings: Homo sapiens
Description: (§1) Various concentrations of each test compound were added at the time of stimulation. […] After the plate was washed with 0.1% Tween 20/PBS, an HRP-luminescent substrate was added to each well and light intensity measured using a LJL Analyst plate luminometer.

[2] = test system: TNFα secretion from PMA/ionomycin stimulated white blood cells from human buffy coat; test: TNFα secretion assay, PMA/ionomycin stimulation
Description: as §1

cytokine secretion = test: Suppression of cytokine secretion in vitro by individual tricyclic compounds
Description: Individual tricyclic compounds were tested for their ability to suppress cytokine secretion in vitro.

[3] = read-out: TNFα LPS percent inhibition
[4] = read-out: TNFα PI percent inhibition
[5] = read-out: IL-1β LPS percent inhibition
[6] = read-out: IL-2 PI percent inhibition
[7] = read-out: TNFα LPS percent inhibition, 0.03 μM
[8] = read-out: TNFα LPS percent inhibition, […]
[9] = read-out: TNFα PI percent inhibition, 0.03 μM
[10] = read-out: TNFα PI percent inhibition, […]

## Cc1cc2c(s1)Nc1ccccc1N=C2N1CCN(C)CC1 [Olanzapine]
[1]; [3]
  inhibition at 0.03 µM: 0%
  inhibition at 0.06 µM: 0%
  inhibition at 0.5 µM: 0%
  inhibition at 1 µM: 0%
  inhibition at 2 µM: 0%
  inhibition at 4 µM: 0%
  inhibition at 8 µM: 0%
  inhibition at 16 µM: 0%
  inhibition at 32 µM: 0%
  inhibition at 64 µM: 10%
[2]; [4]
  inhibition at 0.03 µM: 0%
  inhibition at 0.06 µM: 0%
  inhibition at 0.5 µM: 0%
  inhibition at 1 µM: 0%
  inhibition at 2 µM: 0%
  inhibition at 4 µM: 0%
  inhibition at 8 µM: 0%
  inhibition at 16 µM: 13%
  inhibition at 32 µM: 27%
  inhibition at 64 µM: 54%
Cytokine secretion; [5]
  inhibition at 0.03 µM: 0%
  inhibition at 0.06 µM: 0%
  inhibition at 0.5 µM: 2%
  inhibition at 1 µM: 5%
  inhibition at 2 µM: 3%
  inhibition at 4 µM: 3%
  inhibition at 8 µM: 7%
  inhibition at 16 µM: 21%
  inhibition at 32 µM: 41%
  inhibition at 64 µM: 40%
Cytokine secretion; [6]
  inhibition at 0.03 µM: 0%
  inhibition at 0.06 µM: 0%
  inhibition at 0.5 µM: 0%
  inhibition at 1 µM: 0%
  inhibition at 2 µM: 0%
  inhibition at 4 µM: 0%
  inhibition at 8 µM: 0%
  inhibition at 16 µM: 0%
  inhibition at 32 µM: 0%
  inhibition at 64 µM: 0%

## CNCC[C@@H](Oc1ccccc1C)c1ccccc1 [Tomoxetine, tomoxetine]
[1]; [7]
  inhibition at 0.03 µM: 0%
[1]; read-out: TNFα LPS percent inhibition, 0.07 μM
  inhibition at 0.07 µM: 1%
[1]; [8]
  inhibition at 69 µM: 0%
[2]; [9]
  inhibition at 0.03 µM: 0%
[2]; read-out: TNFα PI percent inhibition, 0.07 μM
  inhibition at 0.07 µM: 4%
[2]; [10]
  inhibition at 69 µM: 72%
Cytokine secretion; [5]
  inhibition at 0.03 µM: 0%
  inhibition at 0.07 µM: 0%
  inhibition at 69 µM: 0%
Cytokine secretion; [6]
  inhibition at 0.03 µM: 0%
  inhibition at 0.07 µM: 1%
  inhibition at 69 µM: 79%

## CN(C)CCC=C1c2ccccc2CCc2ccccc21 [Amitriptyline, amitriptyline]
[1]; [7]
  inhibition at 0.03 µM: 0%
[1]; read-out: TNFα LPS percent inhibition, 0.06 μM
  inhibition at 0.06 µM: 0%
[1]; read-out: TNFα LPS percent inhibition, 0.50 μM
  inhibition at 0.5 µM: 0%
[1]; read-out: TNFα LPS percent inhibition, 1.00 μM
  inhibition at 1 µM: 0%
[1]; read-out: TNFα LPS percent inhibition, 2.00 μM
  inhibition at 2 µM: 0%
[1]; read-out: TNFα LPS percent inhibition, 4.00 μM
  inhibition at 4 µM: 0%
[1]; read-out: TNFα LPS percent inhibition, 8.00 μM
  inhibition at 8 µM: 0%
[1]; [8]
  inhibition at 16 µM: 0%
  inhibition at 32 µM: 18%
  inhibition at 64 µM: 45%
[2]; [9]
  inhibition at 0.03 µM: 0%
[2]; read-out: TNFα PI percent inhibition, 0.06 μM
  inhibition at 0.06 µM: 0%
[2]; read-out: TNFα PI percent inhibition, 0.50 μM
  inhibition at 0.5 µM: 0%
[2]; read-out: TNFα PI percent inhibition, 1.00 μM
  inhibition at 1 µM: 0%
[2]; read-out: TNFα PI percent inhibition, 2.00 μM
  inhibition at 2 µM: 0%
[2]; read-out: TNFα PI percent inhibition, 4.00 μM
  inhibition at 4 µM: 5%
[2]; read-out: TNFα PI percent inhibition, 8.00 μM
  inhibition at 8 µM: 21%
[2]; [10]
  inhibition at 16 µM: 35%
  inhibition at 32 µM: 66%
  inhibition at 64 µM: 81%
Cytokine secretion; [5]
  inhibition at 0.03 µM: 0%
  inhibition at 0.06 µM: 0%
  inhibition at 0.5 µM: 0%
  inhibition at 1 µM: 0%
  inhibition at 2 µM: 0%
  inhibition at 4 µM: 11%
  inhibition at 8 µM: 7%
  inhibition at 16 µM: 0%
  inhibition at 32 µM: 0%
  inhibition at 64 µM: 0%
Cytokine secretion; [6]
  inhibition at 0.03 µM: 0%
  inhibition at 0.06 µM: 2%
  inhibition at 0.5 µM: 0%
  inhibition at 1 µM: 0%
  inhibition at 2 µM: 0%
  inhibition at 4 µM: 4%
  inhibition at 8 µM: 7%
  inhibition at 16 µM: 33%
  inhibition at 32 µM: 62%
  inhibition at 64 µM: 82%
